Data taken from patent publication US9492450B2, “Inhibition of dynamin related protein 1 to promote cell death” (University of Pittsburgh—of the Commonwealth System of …, priority 2011, dated 2016).

Experiments:
[1] = test system: Bax/Bak WT and double knockout (DKO) SV40-transformed MEF cells; test: Apoptosis, ROS and mitochondrial morphology in Bax/Bak MEF cells; assay type: cell-based, mouse; conditions: cisplatin alone 20 h in DKO cells; combination within 8 h
Protocol: FIG. 24A-E. The combination of cisplatin and mdivi-1 enhances MOMP bypassing Bax/Bak-dependent mechanism. (A) Bax/Bak wild-type (Bax/Bak+/+) and double knockout (Bax/Bak−/−) SV40-transformed MEF cells were treated with cisplatin at indicated concentrations for 20 h. The cleavage of caspase-9 and -3 were detected by western blot. (B, C) Cleavage of caspase-9 and -3 in Bax/Bak wild-type and double knockout MEF cells after combination treatment. (D) Quantification of apoptotic cells by Annexin V and PI after 8 h treatment of combination at 50 μM. (E) Release of cytochrome c from Bax/Bak wild-type and double knockout MEF cells after combination treatment.
FIG. 25A-I. Mdivi-1 causes mitochondrial dysfunction and its combination with cisplatin induces mitochondrial swelling that triggers Bax/Bak-independent MOMP. (A) MDA-MB-231 cells and H1299 cells were treated as indicated for 4 h and subjected to ATP determination. […] (B, C) OCR and ECAR were measured after 4 h treatment of H1299 cells with agents alone or the combination (C/M). […] Mitochondrial membrane potential was determined with TMRM. […] Mitochondrial membrane potential was measured as in D. (F) Bax/Bak double knockout MEF cells were treated as indicated for 2 h, ROS generation was determined with DCF-DA. […] Mitochondrial morphology was analyzed by confocal microscopy. […] Mitochondrial ultrastructure was analyzed by electron microscopy. […]

H1299 cells = test: Mitochondrial function: ATP, OCR, ECAR, TMRM membrane potential; assay type: cell-based, human; conditions: 50 μM, 4 h
Protocol: FIG. 25A-I. Mdivi-1 causes mitochondrial dysfunction and its combination with cisplatin induces mitochondrial swelling that triggers Bax/Bak-independent MOMP. (A) MDA-MB-231 cells and H1299 cells were treated as indicated for 4 h and subjected to ATP determination. […] (B, C) OCR and ECAR were measured after 4 h treatment of H1299 cells with agents alone or the combination (C/M). (D) H1299 cells were treated as indicated for 4 h. Mitochondrial membrane potential was determined with TMRM. (E) Bax/Bak double knockout MEF cells were treated with DMSO or the combination, with or without the presence of 10 μM FCCP for 2 h. Mitochondrial membrane potential was measured as in D. (F) Bax/Bak double knockout MEF cells were treated as indicated for 2 h, ROS generation was determined with DCF-DA. (G) Bax/Bak double knockout MEF cells were pre-incubated with 5 μM MitoSox for 30 min, and then treated as indicated for 2 h followed by flow cytometry. […] Mitochondrial morphology was analyzed by confocal microscopy. […] Mitochondrial ultrastructure was analyzed by electron microscopy. […]
Total cellular ATP content was determined using a luminescent ATP detection kit, ATPlite (PerkinElmer Life Sciences, Boston, Mass.), according to the manufacturer's instruction. The luminescence intensity was measured using a microplate reader, Synergy 2 (BioTek instruments, Winooski, Vt.). […]

MDA-MB-231 cells [2] = test: DNA content flow cytometry (propidium iodide): G2/M arrest and aneuploidy; assay type: cell-based, human; conditions: mdivi-1 50 μM 24 and 48 h, siRNA 72 and 96 h
Protocol: Cell cycle distribution was determined by flow cytometric analysis of propidium iodide stained cells. The percentage of the cells containing a DNA content of 4N and a DNA content>4N are indicated. […] MDA-MB-231 cells were treated with either 5 μg/ml oligomycin, 5 μM FCCP, or 10 μg/ml antimycin A for 24 h. Cell cycle distribution was determined as described above.
Cell cycle distribution was determined by flow cytometric analysis of propidium iodide stained cells. The percentage of the cells containing a DNA content of 4N and >4N are indicated. Data presented in this figure are representative of three independent experiments.
For DNA content analysis, cells were trypsinized and fixed in 70% ice-cold ethanol overnight at 4° C. After fixation, the cells were washed with 1% BSA/PBS, and permeabilized using 0.25% triton-X 100 in 1% BSA/PBS. Cells were then incubated in PI solution (PBS containing 50 μg/ml of PI and 40 μg/ml of RNase A) for 30 min at room temperature.

MDA-MB-231 cells [3] = test: Chromosome and mitotic spindle morphology in mitotic cells; assay type: cell-based, human; conditions: 7 hours
Protocol: The effect of Drp1 inhibition of chromosome stability was then evaluated. MDA-MB-231 cells that have been engineered to stably express a mitochondrial marker protein pAcGFP-1-mito were treated with mdivi-1 for 7 hours. Mitotic cells were selected for examining the morphology of their chromosomes and mitotic spindles. Chromosomes were visualized by DAPI, and mitotic spindles were visualized by staining cells with Alex-Fluor 555-conjugated anti-β tubulin antibody. The results are shown in FIG. 11; two representative mitotic figures are shown.

[4] = Solubility of mdivi-1 with carrier compounds; assay type: physicochemical; conditions: 1 mM mdivi-1

Compound | cleavage of caspase-9 and -3 [1] | extracellular acidification rate (ECAR) (H1299 cells) | oxygen consumption rate (OCR) / mitochondrial respiration (H1299 cells) | G2/M cell cycle arrest and aneuploidy (MDA-MB-231 cells [2]) | G2/M cell cycle arrest and aneuploidy (MDA-MB-231 cells [2]; listed as Mdivi-1) | chromosome stability during mitosis (MDA-MB-231 cells [3]) | solubility of mdivi-1 ([4]; 40% 2-Hydroxypropyl-β-cyclodextrin/PBS) | solubility of mdivi-1 ([4]; human serum albumin as vehicle, 15% HSA in 0.85% sodium chloride)
N.N.[Cl][Pt][Cl] [cisplatin] | absence of cleavage of caspase-9 and -3 |  |  |  |  |  |  | 
COc1cc(-n2c(=S)[nH]c3ccccc3c2=O)c(Cl)cc1Cl [mdivi-1] |  | enhanced the extracellular acidification rate | suppressed mitochondrial respiration | induces G2/M cell cycle arrest and aneuploidy | induced the similar G2/M cell cycle arrest and aneuploidy | chromosomal instability | improve the solubility | improve the solubility
